According to patent US20230092679A1, “MCL-1 INHIBITOR ANTIBODY-DRUG CONJUGATES AND METHODS OF USE” (NOVARTIS AG, priority 2019, published 2023):

How the values were obtained:
[1] = system: monomac6; assay: In vitro ADC activity, AML cell lines, CellTiter-Glo (Example 20); type: cell-based; conditions: monomac6, 5 days
[2] = system: hel9217; assay: as above; type: cell-based; conditions: hel9217, 5 days
[3] = system: various MM cell lines; assay: In vitro ADC activity, MM cell lines, CellTiter-Glo (Example 20, Table 39); type: cell-based; conditions: 5 days treatment; for Amax: in %
[4] = system: AMO1-CD33 clone D2; assay: CellTiter-Glo proliferation assay (Example 6); type: cell-based, human; conditions: CD33 Mcl-1 ADCs and payload P1, 5 days
Experimental: (§1) Mcl-1 ADCs were tested on nine endogenous cancer cell lines and one isogenic cell line engineered to overexpress a target of interest. Six targets were assessed: HER2, BCMA, CD38, CD48, CD79b, and CD33.
(§2) Cell lines • HER2: HCC1954 (ATCC No. CRL-2338 cultured in RPMI-1640+10% FBS) and HCC2218 (ATCC No. CRL-2343 cultured in RPMI-1640+10% FBS). • BCMA: NCI-H929 (ATCC No. CRL-9068 cultured in RPMI-1640+10% FBS+0.05 mM 2-mercaptoethanol). • CD38: A4-Fuk (JCRB No. JCRB0097 cultured in RPMI-1640+10% FBS) and KMS-21 BM (JCRB No. JCRB1185 cultured in RPMI-1640+10% FBS). • CD48: NCI-H929 (ATCC No. CRL-9068 cultured in RPMI-1640+10% FBS+0.05 mM 2-mercaptoethanol), OPM-2 (DSMZ No. ACC-50 cultured in RPMI-1640+10% FBS) and AMO1 (DSMZ No. ACC-538 cultured in RPMI-1640+20% FBS). • CD79b: RS4;11 (ATCC No. CRL-1873 cultured in RPMI-1640+10% FBS). • CD33: MOLM-13 (DSMZ No. ACC-554 cultured in RPMI-1640+10% FBS) and an isogenic cell line, AMO1-CD33 clone D2. AMO1 cell line was transfected to generate a stable AMO1 cell line expressing the exogenous protein of interest, CD33, AMO1-CD33 clone D2 (cultured in RPMI-1640+20% FBS).
(§3) The ability of Mcl-1 ADCs to inhibit cell proliferation and survival was assessed using a Promega CellTiter-Glo® proliferation assay. Cell lines were cultured in media optimal for their growth at 5% CO2, 37° C. in a tissue culture incubator. Prior to seeding for the proliferation assay, the cells were split at least 2 days before the assay to ensure optimal growth density. On the day of seeding, adherent cells were lifted off tissue culture flasks using 0.25% trypsin. Cell viability and cell density were determined using a cell counter (Vi-Cell XR Cell Viability Analyzer, Beckman Coulter). […] Cells were seeded at a density of 1,000 cells per well in 45 μl of standard growth media. Plates were incubated at 5% CO2, 37° C. overnight in a tissue culture incubator. The next day, free Mcl-1 payload (P1), targeting Mcl-1 ADCs, and non-targeting isotype ADCs were prepared at 10× in standard growth media. The prepared drug treatments were then added to the cells resulting in final concentrations of 0.0005-500 nM and a final volume of 50 μl per well. Each drug concentration was tested in quadruplets. Plates were incubated at 5% CO2, 37° C. for 5 days in a tissue culture incubator, after which cell viability was assessed through the addition of 25 μl of CellTiter Glo® (Promega, Cat. No. G7573), a reagent which lyses cells and measures total adenosine triphosphate (ATP) content. Plates were incubated at room temperature for 10 minutes to stabilize luminescent signals prior to reading using a luminescence reader (EnVision Multilabel Plate Reader, PerkinElmer). […]

[5] = system: A4-Fuk; assay: CellTiter-Glo proliferation assay (Example 6); type: cell-based; set-up: key: **: tested but curve did not converge; conditions: CD38 Mcl-1 ADCs and payload P1, 5 days
Experimental: as §1, §2, §3

[6] = system: KMS-21 BM; assay: CellTiter-Glo proliferation assay (Example 6); type: cell-based; set-up: key: **: tested but curve did not converge; conditions: CD38 Mcl-1 ADCs and payload P1, 5 days
Experimental: as §1, §2, §3

[7] = system: cmk; assay: In vitro ADC activity, AML cell lines, CellTiter-Glo (Example 20); type: cell-based; conditions: 5 days
[8] = system: nb4; assay: as above; type: cell-based; conditions: nb4, 5 days
[9] = system: ocim1; assay: as above; type: cell-based; conditions: ocim1, 5 days

Structure (SMILES): COc1ccccc1-c1nccc(COc2ccccc2C[C@@H](Oc2ncnc3sc(-c4ccc(F)cc4)c(-c4ccc(OCCN5CCN(C)CC5)c(Cl)c4C)c23)C(=O)O)n1 [P1, (2R)-2-[5-[3-chloro-2-methyl-4-[2-(4-methylpiperazin-1-yl)ethoxy]phenyl]-6-(4-fluorophenyl)thieno[2,3-d]pyrimidin-4-yl]oxy-3-[2-[[2-(2-methoxyphenyl)pyrimidin-4-yl]methoxy]phenyl]propanoic acid]
- GI50 ([1]; Homo sapiens, MONO-MAC-6, 120 h): 1 nM
- Amax ([1]; in % (unit assumed)): −43
- GI50 ([2]; Homo sapiens, HEL 92.1.7, 120 h): 5280 nM
- Amax ([2]; in % (unit assumed)): −1
- GI50 ([3]; 120 h, Ip1 cell line): 7 nM
- GI50 ([3]; 120 h, u266b1 cell line): 283 nM
- GI50 ([3]; Homo sapiens, AMO1, 120 h, amo1 cell line): 5 nM
- GI50 ([3]; Homo sapiens, EJM, 120 h, ejm cell line): 61 nM
- GI50 ([3]; Homo sapiens, KMS-11, 120 h, kms11 cell line): 98 nM
- GI50 ([3]; Homo sapiens, KMS-12-BM, 120 h, kms12bm cell line): 11 nM
- GI50 ([3]; Homo sapiens, L-363, 120 h, L363 cell line): 3 nM
- GI50 ([3]; Homo sapiens, MOLP-8, 120 h, molp8 cell line): 1 nM
- GI50 ([3]; Homo sapiens, NCI-H929, 120 h, h929 cell line): 1 nM
- GI50 ([3]; Homo sapiens, OPM-2, 120 h, opm2 cell line): 1 nM
- GI50 ([3]; Homo sapiens, RPMI-8226, 120 h, rpmi8226 cell line): 2 nM
- GI50 ([3]; Homo sapiens, SK-MM-2, 120 h, skmm2 cell line): > 10000 nM
- Amax ([3]; Ip1 cell line): −58
- GI50 ([3]; KE-97, 120 h, ke97 cell line): 7910 nM
- GI50 ([3]; KHM-1B, 120 h, khm1b cell line): 2 nM
- GI50 ([3]; KMM-1, 120 h, kmm1 cell line): 154 nM
- GI50 ([3]; KMS-20, 120 h, kms20 cell line): 8 nM
- GI50 ([3]; KMS-21BM, 120 h, kms21bm cell line): 1 nM
- GI50 ([3]; KMS-26, 120 h, kms26 cell line): 60 nM
- GI50 ([3]; KMS-27, 120 h, kms27 cell line): 1 nM
- GI50 ([3]; KMS-28BM, 120 h, kms28bm cell line): 6 nM
- GI50 ([3]; KMS-34, 120 h, kms34 cell line): 498 nM
- GI50 ([3]; Karpas-620, 120 h, karpas620 cell line): 205 nM
- Amax ([3]; L363 cell line): −47
- Amax ([3]; amo1 cell line): −20
- Amax ([3]; ejm cell line): −93
- Amax ([3]; h929 cell line): −74
- Amax ([3]; karpas620 cell line): −43
- Amax ([3]; ke97 cell line): 21
- Amax ([3]; khm1b cell line): −84
- Amax ([3]; kmm1 cell line): −67
- Amax ([3]; kms11 cell line): −62
- Amax ([3]; kms12bm cell line): −79
- Amax ([3]; kms20 cell line): −88
- Amax ([3]; kms21bm cell line): −76
- Amax ([3]; kms26 cell line): −49
- Amax ([3]; kms27 cell line): −89
- Amax ([3]; kms28bm cell line): −42
- Amax ([3]; kms34 cell line): −64
- Amax ([3]; molp8 cell line): −74
- Amax ([3]; opm2 cell line): −77
- Amax ([3]; rpmi8226 cell line): −91
- Amax ([3]; skmm2 cell line): 112
- Amax ([3]; u266b1 cell line): −24
- Amax AMO1-CD33 [4]: 103.00
- IC50 ([4]; Homo sapiens, 120 h): 1.53 nM
- Amax A4FUK [5]: **
- IC50 (nM) A4FUK [5]: **
- Amax KMS21 BM [6]: **
- IC50 (nM) KMS21 BM [6]: **
- Amax ([7]; unit assumed): 100%
- GI50 ([7]; Homo sapiens, 120 h): > 10000 nM
- GI50 ([8]; Homo sapiens, NB-4, 120 h): 3 nM
- Amax ([8]; in % (unit assumed)): −62
- GI50 ([9]; OCI-M1, 120 h): > 10000 nM
- Amax ([9]; unit assumed): 86%
